{RR} = two arginine residues at the PNA terminus

We go through two substances from patent US20260092085A1, “SYNTHETIC TRIPLEX PEPTIDE NUCLEIC ACID-BASED INHIBITORS FOR CANCER THERAPY” (University of Connecticut, priority 2022, published 2026).

For one data set, the system named is miR-155. Description: miR-155 gene expression by RT-PCR in U2932 cells. It is filed as cell-based, human. As to conditions: U2932, 500 nM, 48 hours, relative to scrambled control. The method, then: FIGS. 3A-F show cell culture-based functional assay in U2932 lymphoma cells. (3A) γtcPNA-155-TAMRA uptake in the U2932 lymphoma cell line: Representative flow cytometry traces of TAMRA fluorescence in U2932 cells after treatment with 500 nM dose of γtcPNA-155-TAMRA for 48 hours. The data was analyzed by FlowJo software. (3B) Normalized miR-155 gene expression levels in U2932 after treatment with phosphate buffer saline (PBS) as a control and with 500 nM dose of Scr-γtcPNA-155, PNA-155, γPNA-155 and γtcPNA-155 for 48 hours compared to average control U6 (n=3), data represented as mean±standard error mean (SEM), Statistical analysis was performed using Unpaired two-tailed t-test. Further, statistical analysis was performed relative to Scr-γtcPNA-155 treated cells. ***p<0.001. (3C) Gene expression level of miR-155 downstream genes, tumor suppressor proteins (FOXO3A, CUX1, SOCS1, CSF1R, JARID2, SHIP1, PICALM, PDCD4, BACH1, WEE1, TP53TG3, CASP3, PTEN) in U2932 cell line after treatment with PBS as a control and with after treatment with 500 nM of Scr-γtcPNA-155, PNA-155, γPNA-155 and γtcPNA-155 for 48 hours. Data is normalized with average GAPDH control (n=3), and represented as mean±SEM, *p<0.05. Unpaired two-tailed t-test was used for statistical analysis and analysis was performed relative to Scr-γtcPNA-155 treated cells. (3D) Gene expression level of miR-155 downstream genes MCL1 in U2932 cell line after treatment with PBS as a control and 500 nM of Scr-γtcPNA-155, PNA-155, γPNA-155 and γtcPNA-155 for 48 hours. Data is normalized with average GAPDH control (n=3), and represented as mean±SEM, *p<0.05, **p<0.01 and ***p<0.001. […] (3E) Representative western blot of Mcl-1 and its quantification (n=3 technical replicate) and (3F) Caspase-3 protein and its quantification (n=3 technical replicate) in U2932 cell line after treatment with 500 nM of Scr-γtcPNA-155, PNA-155 and γtcPNA-155 for 48 hours. […] Numbers above western blot panels represent relative quantification of the respective bands using ImageJ software and normalized relative to loading control and treatment control. […]

Another data set relates to miR-155 downstream genes. Description: Gene expression of miR-155 downstream genes by RT-PCR in U2932 cells. To be noted: U2932, 500 nM, 48 hours. It is filed as cell-based, human. The method, then:
FIGS. 3A-F show cell culture-based functional assay in U2932 lymphoma cells. (3A) γtcPNA-155-TAMRA uptake in the U2932 lymphoma cell line: Representative flow cytometry traces of TAMRA fluorescence in U2932 cells after treatment with 500 nM dose of γtcPNA-155-TAMRA for 48 hours. The data was analyzed by FlowJo software. (3B) Normalized miR-155 gene expression levels in U2932 after treatment with phosphate buffer saline (PBS) as a control and with 500 nM dose of Scr-γtcPNA-155, PNA-155, γPNA-155 and γtcPNA-155 for 48 hours compared to average control U6 (n=3), data represented as mean±standard error mean (SEM), Statistical analysis was performed using Unpaired two-tailed t-test. Further, statistical analysis was performed relative to Scr-γtcPNA-155 treated cells. ***p<0.001. (3C) Gene expression level of miR-155 downstream genes, tumor suppressor proteins (FOXO3A, CUX1, SOCS1, CSF1R, JARID2, SHIP1, PICALM, PDCD4, BACH1, WEE1, TP53TG3, CASP3, PTEN) in U2932 cell line after treatment with PBS as a control and with after treatment with 500 nM of Scr-γtcPNA-155, PNA-155, γPNA-155 and γtcPNA-155 for 48 hours. Data is normalized with average GAPDH control (n=3), and represented as mean±SEM, *p<0.05. Unpaired two-tailed t-test was used for statistical analysis and analysis was performed relative to Scr-γtcPNA-155 treated cells. (3D) Gene expression level of miR-155 downstream genes MCL1 in U2932 cell line after treatment with PBS as a control and 500 nM of Scr-γtcPNA-155, PNA-155, γPNA-155 and γtcPNA-155 for 48 hours. Data is normalized with average GAPDH control (n=3), and represented as mean±SEM, *p<0.05, **p<0.01 and ***p<0.001. Statistical analysis was performed using Unpaired two-tailed t-test. Analysis was performed relative to Scr-γtcPNA-155 treated cells. (3E) Representative western blot of Mcl-1 and its quantification (n=3 technical replicate) and (3F) Caspase-3 protein and its quantification (n=3 technical replicate) in U2932 cell line after treatment with 500 nM of Scr-γtcPNA-155, PNA-155 and γtcPNA-155 for 48 hours. Data is represented as mean±SEM and unpaired two-tailed t-test was used for statistical analysis. *p<0.05 **p<0.01. Numbers above western blot panels represent relative quantification of the respective bands using ImageJ software and normalized relative to loading control and treatment control.
Gene expression by RT-PCR: 400,000 U2932 cells were seeded in a 12 well plate. The cells were treated with 500 nM PNA-155, gamma tcPNA-155, gamma PNA-155, Scr gamma tcPNA-155 or were PBS treated (control) for 48 hrs in an incubator (37° C. and 5% CO2). The cells were centrifuged at 2000 rpm for 4 mins at 4° C. The total RNA from the cell pellet was extracted using RNeasy® mini kit (Qiagen). The cDNA was prepared in thermal cycler (Bio-rad) using reverse transcriptase, RNase inhibitor, dNTPs, nuclease-free water and RT primers specific for miR-155 and U6. Random primers were used for the preparation of cDNA for downstream targets. The cDNA was amplified using miR-155 assay, U6 assay, or specific downstream target assays in CFX Connect™ Real-time PCR detection system (Bio-rad). The samples were subjected to polymerase activation (95° C. for 10 mins), followed by 40 cycles of denaturation (95° C. for 15 sec) and annealing (60° C. for 1 min). The 2^−ΔΔCT method was used to calculate the fold change in target genes.

The next data set has as its system PBMC cells. Description: Safety assessment by trypan blue assay in PBMC. In kind it is cell-based. As to conditions: 500-4000 nM, 48 hours. The method, then:
Control is PBS treated PBMC cells. n=3, data represented as mean±standard error mean (SEM).
Safety assessment by trypan blue assay […] blood mononuclear cells (PBMC) (ATCC® PCS-800-011™) were purchased from ATCC (Virginia, USA). The cells were regularly tested for Mycoplasma contamination using MycoAlert™ Mycoplasma detection kit (Lonza). All the cells used in the experiment were passaged less than 2 times. 10,000 PBMC cells were seeded in a 96 well plate. The cells were treated with 500 nM, 1000 nM, 2000 nM and 4000 nM PNA-155 and γtcPNA-155 for 48 hrs in an incubator. The dead cells were examined with trypan blue and further counted using an automated cell counter (Bio-rad).

A further data set concerns SUDHL-2 tumors. Description: Tumor growth in SUDHL-2 derived xenograft. In kind it is in vivo, NSG mice. As to conditions: SUDHL-2 xenograft, intratumoral, compared to Scr-γtcPNA-155 and PNA-155 control. The method, then:
Data represented as mean±standard error mean (SEM). Scr-γtcPNA-155 (n=4), PNA-155 (n=5), γtcPNA-155 (n=5), *p<0.05, **p<0.01, ***p<0.001, ****p<0.0001. Multiple t-tests one per row was used for statistical analysis.
For SUDHL-2 xenografts, 1×10^7 SUDHL-2 cells suspended in RPMI-1640 medium were injected subcutaneously in the right and left flank of 6-week-old NSG mice. The mice developed a small bump in 2-3 weeks. When the tumor volume reached 100-200 mm^3, the mice were randomly allocated to the treatment group (n=5 per group).
Further, we corroborated our results in the SUDHL-2 derived xenograft mouse model. We injected the SUDHL-2 cells in the right and left flank of mice. After 14-21 days, when the tumor volume reached 100-200 mm3, the mice were randomized into three treatment groups based on uniform tumor volume distribution in each group. […] (FIG. 27)

For the substance “PNA-155: conventional full-length regular PNA (23mer), RR-ACCCCTATCACGATTAGCATTAA-RR, SEQ ID NO: 1 (all peptide nucleic acid (PNA), 5' {RR}, 3' {RR}) [reference compound]”, the miR-155 inhibition entry in the data set on miR-155 is listed as “approximately 80%”. In the data set with miR-155 downstream genes, the “reduction in MCL1 gene expression levels” value is listed as 10%. For the same substance, in the data set on PBMC cells, the “viability of PBMC cell lines” value was “did not notice a significant reduction in viability”.
Turning to “γtcPNA-155: serine gamma tail-clamp anti-miR-155 PNA, RR-TJJJJ-OOO-ACCCCTATCACGATTAGCATTAA-RR, SEQ ID NO: 3 (all peptide nucleic acid (PNA); serine gamma PNA, tail-clamp TJJJJ via linkers, Arg-Arg at both ends)”, in the data set with miR-155, the miR-155 inhibition is recorded as approximately 90%. Besides, in the data set on miR-155 downstream genes, the “de-repression of miR-155 target tumor suppressor genes” value is recorded as “significant de-repression” and the “reduction in MCL1 gene expression levels” value came out at 40%. In addition, in the data set on miR-155 downstream genes (in comparison to PNA-155), the “increase in CSF1R levels” value is 1.8 fold, the “increase in CUX1 levels” value is recorded as 1.6 fold and the “increase in SHIP1 levels” value is recorded as 1.4 fold. Besides, the “viability of PBMC cell lines” value in the data set with PBMC cells is reported as “did not notice a significant reduction in viability”. In the data set on SUDHL-2 tumors, the tumor growth entry is on record as “reduced the tumor growth”.
